This note sets out measurements from PMC3166015 (Emerging Infectious Diseases, 2011).

This test has as its target NA activity of oseltamivir-resistant (OR, H275Y) pandemic (H1N1) 2009 virus (Influenza A virus, UniProt C3W5S3, H275Y). The class given is biochemical.

For `CCC(CC)[C@H](NC(C)=O)[C@@H]1[C@H](O)[C@@H](C(=O)O)C[C@H]1N=C(N)N` [peramivir], the peramivir susceptibility entry is reported as “cross-resistance”. `CC(=O)N[C@H]1[C@H]([C@H](O)[C@H](O)CO)OC(C(=O)O)=C[C@@H]1N=C(N)N` [Zanamivir, zanamivir]: the “susceptibility by NA inhibition assay” value is “sensitive”.
